Reference: patent US20220167615A1, “FUNGICIDAL COMPOSITIONS” (SYNGENTA CROP PROTECTION AG, priority 2019, published 2022)

Experiments:
[1] = test system: Mycosphaerella graminicola (Septoria tritici); experiment: Mycosphaerella graminicola (Septoria tritici) / liquid culture (Septoria blotch); format: cell-based; settings: Zymoseptoria tritici; 20 ppm in the applied formulation; PDB, 24° C., 4 to 5 days after application; vs untreated control; read-out: disease control (inhibition of growth, photometric)
[2] = test system: Monographella nivalis (Microdochium nivale); experiment: Monographella nivalis (Microdochium nivale) / liquid culture (foot rot cereals); format: cell-based; settings: 20 ppm in the applied formulation, PDB, 24° C., 4-5 days after application, vs untreated control, read-out: disease control (inhibition of growth, photometric)
[3] = test system: Glomerella lagenarium (Colletotrichum lagenarium); experiment: Glomerella lagenarium (Colletotrichum lagenarium) / liquid culture (Anthracnose); format: cell-based; settings: Colletotrichum orbiculare; 20 ppm in the applied formulation; PDB, 24° C., 3 to 4 days after application; vs untreated control; read-out: disease control (inhibition of growth, photometric)
[4] = test system: Mycosphaerella arachidis (Cercospora arachidicola); experiment: Mycosphaerella arachidis (Cercospora arachidicola) / liquid culture (early leaf spot); format: cell-based; settings: 20 ppm in the applied formulation, PDB, 24° C., 4-5 days after application, vs untreated control, read-out: disease control (inhibition of growth, photometric)
[5] = test system: Puccinia recondita f. sp. tritici; experiment: Puccinia recondita f. sp. tritici / wheat / leaf disc preventative (Brown rust); format: in vivo; settings: foliar, 200 ppm in the applied formulation, wheat leaf segments cv. Kanzler, inoculated 1 day after application, assessed 7-9 days after application, read-out: percent disease control compared to untreated
[6] = test system: Botryotinia fuckeliana (Botrytis cinerea); experiment: Botryotinia fuckeliana (Botrytis cinerea) / liquid culture (Gray mould); format: cell-based; settings: 20 ppm in the applied formulation, Vogels broth, 24° C., 3-4 days after application, vs untreated control, read-out: disease control (inhibition of growth, photometric)
Phakopsora pachyrhizi = Phakopsora pachyrhizi / soybean / leaf disc preventative (Asian soybean rust); format: in vivo; settings: foliar, 200 ppm in the applied formulation, soybean leaf disks, inoculated one day after application, assessed 12 to 14 days after application, read-out: percent disease control compared to untreated

COc1ccnc(C(=O)N[C@@H](C)C(=O)OC(C)C2(c3ccc(Cl)cc3)CCC2)c1O (stereo partly drawn) [X.01, 1-[1-(4-chlorophenyl)cyclobutyl]ethyl(2S)-2-[(3-hydroxy-4-methoxy-pyridine-2-carbonyl)amino]propanoate]
≥ 80%: inhibition at 20 ppm [1] | inhibition at 20 ppm [2] | inhibition at 20 ppm [3] | inhibition at 20 ppm [4] | pest or weed control at 200 ppm [5] | inhibition at 20 ppm [6]

COc1ccnc(C(=O)N[C@@H](C)C(=O)OC(C)C(C)c2ncc(Cl)cc2Cl)c1OCOC(=O)C(C)C (stereo partly drawn) [X.06, [2-[[(1S)-2-[2-(3,5-dichloro-2-pyridyl)-1-methyl-propoxy]-1-methyl-2-oxo-ethyl]carbamoyl]-4-methoxy-3-pyridyl]oxymethyl 2-methylpropanoate]
≥ 80%: pest or weed control at 200 ppm (Phakopsora pachyrhizi) | inhibition at 20 ppm [1] | inhibition at 20 ppm [2] | inhibition at 20 ppm [4] | pest or weed control at 200 ppm [5]

COc1ccnc(C(=O)N[C@@H](C)C(=O)OC(C)C(C)c2ccc3ccccc3n2)c1O (stereo partly drawn) [X.10, [1-methyl-2-(2-quinolyl)propyl] (2S)-2-[(3-hydroxy-4-methoxy-pyridine-2-carbonyl)amino]propanoate]
≥ 80%: inhibition at 20 ppm [1] | inhibition at 20 ppm [2] | inhibition at 20 ppm [3] | pest or weed control at 200 ppm [5] | inhibition at 20 ppm [6]

COc1ccnc(C(=O)N[C@@H](C)C(=O)OC(C)C(C)n2ccc3cccc(Br)c32)c1O (stereo partly drawn) [X.11, [2-(7-bromoindol-1-yl)-1-methyl-propyl] (2S)-2-[(3-hydroxy-4-methoxy-pyridine-2-carbonyl)amino]propanoate]
≥ 80%: pest or weed control at 200 ppm (Phakopsora pachyrhizi) | inhibition at 20 ppm [1] | inhibition at 20 ppm [2] | inhibition at 20 ppm [3] | inhibition at 20 ppm [4] | pest or weed control at 200 ppm [5]

COc1ccnc(C(=O)N[C@@H](C)C(=O)OC(C)C(C)n2ncc3ccccc32)c1O (stereo partly drawn) [X.13, (2-indazol-1-yl-1-methyl-propyl) (2S)-2-[(3-hydroxy-4-methoxy-pyridine-2-carbonyl)amino]propanoate]
≥ 80%: inhibition at 20 ppm [1]

COc1ccnc(C(=O)N[C@@H](C)C(=O)OC(C)C(C)c2ccc(Cl)s2)c1O (stereo partly drawn) [X.14, [2-(5-chloro-2-thienyl)-1-methyl-propyl] (2S)-2-[(3-hydroxy-4-methoxy-pyridine-2-carbonyl)amino]propanoate]
≥ 80%: inhibition at 20 ppm [1] | inhibition at 20 ppm [2] | inhibition at 20 ppm [3] | inhibition at 20 ppm [4] | pest or weed control at 200 ppm [5] | inhibition at 20 ppm [6]

COc1ccnc(C(=O)N[C@@H](C)C(=O)OC(C)C(C)n2ccc3c(Cl)ccc(Cl)c32)c1OC(C)=O (stereo partly drawn) [X.15, [2-(4,7-dichloroindol-1-yl)-1-methyl-propyl] (2S)-2-[(3-acetoxy-4-methoxy-pyridine-2-carbonyl)amino]propanoate]
≥ 80%: inhibition at 20 ppm [1] | inhibition at 20 ppm [2] | inhibition at 20 ppm [3] | inhibition at 20 ppm [4] | pest or weed control at 200 ppm [5]

COc1ccnc(C(=O)N[C@@H](C)C(=O)OC(C)C(C)n2ccc3c(F)ccc(Br)c32)c1OC(C)=O (stereo partly drawn) [X.16, [2-(7-bromo-4-fluoro-indol-1-yl)-1-methyl-propyl] (2S)-2-[(3-acetoxy-4-methoxy-pyridine-2-carbonyl)amino]propanoate]
≥ 80%: pest or weed control at 200 ppm (Phakopsora pachyrhizi) | inhibition at 20 ppm [1] | inhibition at 20 ppm [2] | inhibition at 20 ppm [3] | inhibition at 20 ppm [4] | pest or weed control at 200 ppm [5]
